Source: patent publication US6534489B1, “Organophosphorus compounds and the use thereof” (Jomaa Pharmaka GmbH, priority 1998, dated 2003)
Where two headings read alike, the source gives them in different places.

How the values were obtained:
[1] = tested on: Plasmodium falciparum; assay: Antimalarial activity: in vitro Plasmodium falciparum culture, [3H]-hypoxanthine incorporation; assay type: cell-based; details: Example 11, asynchronous blood culture, 48 h + 24 h with [3H]-hypoxanthine, dilution series 100 to 0.14 μmol l−1, IC50 determined by extrapolating, read-out: IC 50 values, Plasmodium falciparum
Protocol: The antimalarial activity of compounds 1 to 5 was determined using in vitro cultures of the causative organism of malaria, Plasmodium falciparum. 200 μl of an asynchronous Plasmodium falciparum culture with a 0.4% blood parasite content and a haematocrit of 2% were loaded into each of the wells of a 96 well microtitre plate. A serial dilution series of the compounds was then prepared in steps of three between concentrations of 100 and 0.14 μmol 1^−1. The plates are incubated at 37° C., 3% CO2 and 5% O2 over a period of 48 hours. 30 μl of medium supplemented with 27 ηCi ml^−1 of [^3H]-hypoxanthine were then added to each well. After 24 hours' incubation, the parasites were harvested by filtration through glass fibre filters and the incorporated radioactivity was measured. Inhibition of parasite growth was measured as the percentage inhibition of tritium incorporation relative to a comparison without the substance. The median inhibitory concentration (IC50) of the substance was determined by extrapolating the values.

[2] = tested on: E. coli K12; assay: Antibacterial action: growth inhibition of E. coli K12 in LB medium (turbidity); assay type: cell-based; details: Escherichia coli, Example 10, overnight at 37° C., dilution series 500, 100, 50, 10 and 0 μmol l−1, growth assessed by turbidity, read-out: IC 50 values, E. coli
Protocol: Antibacterial action of the above-stated compounds 1 to 5
A dilution series comprising the concentrations 500, 100, 50, 10 and 0 μmol 1^−1 of the individual compounds 1 to 5 in LB medium is introduced into 5 culture microtubes in a volume of 0.5 ml. Each of the microtubes was inoculated with 10 μl of an overnight culture of E. coli K12 and shaken overnight at 37° C. Bacterial growth was assessed on the basis of the turbidity of the medium.

| Molecule | IC50 [1] | IC50 [2] | IC50 ([1]; Plasmodium falciparum) |
| --- | --- | --- | --- |
| 3-acetyl-3-(N-hydroxylamino)-3-methyl-[2-(3-pyridyl)ethyl]propylphosphonic acid [Compound 5] | 0.183 µM | – | – |
| CC(=O)N(O)C(CCc1ccccc1)CCP(=O)(O)O (stereo not shown) [Compound 1, 3-N-Acetyl-3-N-(hydroxylamino)-5-phenylpentylphosphonic acid] | 0.215 µM | – | – |
| CC(=O)N(O)C(CCC1CCCCC1)CCP(=O)(O)O (stereo not shown) [Compound 2, 3-N-Acetyl-3-N-(hydroxylamino)-5-cyclohexyl-pentylphosphonic acid] | 0.157 µM | – | – |
| CC(=O)C(C)(NO)C(CCc1ccccc1)CP(=O)(O)O (stereo not shown) [Compound 3, 3-acetyl-3-(N-hydroxylamino)-3-methyl-2-(2-phenylethyl)propylphosphonic acid] | – | 762 µM | 0.405 µM |
| CC(=O)C(C)(NO)C(CCc1ccccn1)CP(=O)(O)O (stereo not shown) [Compound 4, 3-acetyl-3-(N-hydroxylamino)-3-methyl-2-[2-(2-pyridyl)ethyl]propylphosphonic acid] | – | 736 µM | 0.375 µM |
